Key:
[1] = target: Platelet-derived growth factor receptor beta (Mus musculus, UniProt P05622); assay: Inhibitory activity against mouse PDGF beta receptor tyrosine kinase
[2] = target: Proto-oncogene tyrosine-protein kinase Src (Gallus gallus) (UniProt P00523); assay: Inhibitory activity against avian c-Src tyrosine kinase was determined.
SW-620 = assay: Inhibitory activity against SW-620 human colon adenocarcinoma cells was determined.; assay type: functional, cell-based
HCT-8 = assay: Inhibitory activity against HCT-8 human colon adenocarcinoma cells was determined.; assay type: functional, cell-based
[3] = target: Fibroblast growth factor receptor 1 (Homo sapiens, UniProt P11362); assay: Inhibitory activity against fibroblast growth factor receptor 1
HT-29 = assay: Inhibitory activity against HT-29 human colon adenocarcinoma cells was determined.; assay type: functional, cell-based

Platelet-derived growth factor receptor beta, sequence (P05622 whole entry): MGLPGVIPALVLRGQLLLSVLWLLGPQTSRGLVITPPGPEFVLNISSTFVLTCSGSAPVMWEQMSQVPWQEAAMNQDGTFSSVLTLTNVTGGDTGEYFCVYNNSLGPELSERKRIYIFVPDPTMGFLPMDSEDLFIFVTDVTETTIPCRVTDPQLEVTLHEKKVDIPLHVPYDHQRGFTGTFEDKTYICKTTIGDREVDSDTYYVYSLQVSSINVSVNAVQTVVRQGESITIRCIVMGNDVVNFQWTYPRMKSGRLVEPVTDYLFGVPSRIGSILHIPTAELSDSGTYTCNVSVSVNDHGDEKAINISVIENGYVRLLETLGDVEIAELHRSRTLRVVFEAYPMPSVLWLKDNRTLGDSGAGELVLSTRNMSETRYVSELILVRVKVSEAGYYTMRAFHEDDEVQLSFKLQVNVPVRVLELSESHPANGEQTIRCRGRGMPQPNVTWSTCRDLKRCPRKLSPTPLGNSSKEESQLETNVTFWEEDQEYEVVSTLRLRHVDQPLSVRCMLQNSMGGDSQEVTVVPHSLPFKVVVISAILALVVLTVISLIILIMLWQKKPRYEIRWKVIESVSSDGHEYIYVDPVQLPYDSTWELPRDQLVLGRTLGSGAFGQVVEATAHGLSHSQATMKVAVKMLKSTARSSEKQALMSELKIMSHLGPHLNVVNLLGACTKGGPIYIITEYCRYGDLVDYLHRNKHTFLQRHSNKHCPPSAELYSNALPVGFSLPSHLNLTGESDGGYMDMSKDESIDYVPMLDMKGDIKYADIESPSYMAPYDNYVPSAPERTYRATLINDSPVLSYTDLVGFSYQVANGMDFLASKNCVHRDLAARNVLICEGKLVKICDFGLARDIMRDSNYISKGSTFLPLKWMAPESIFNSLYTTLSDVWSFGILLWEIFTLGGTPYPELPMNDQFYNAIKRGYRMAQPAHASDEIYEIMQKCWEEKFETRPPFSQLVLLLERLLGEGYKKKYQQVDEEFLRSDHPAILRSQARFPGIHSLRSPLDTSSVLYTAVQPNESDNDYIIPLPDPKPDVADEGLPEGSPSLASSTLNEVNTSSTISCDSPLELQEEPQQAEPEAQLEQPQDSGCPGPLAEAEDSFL
Fibroblast growth factor receptor 1, sequence (P11362 whole entry): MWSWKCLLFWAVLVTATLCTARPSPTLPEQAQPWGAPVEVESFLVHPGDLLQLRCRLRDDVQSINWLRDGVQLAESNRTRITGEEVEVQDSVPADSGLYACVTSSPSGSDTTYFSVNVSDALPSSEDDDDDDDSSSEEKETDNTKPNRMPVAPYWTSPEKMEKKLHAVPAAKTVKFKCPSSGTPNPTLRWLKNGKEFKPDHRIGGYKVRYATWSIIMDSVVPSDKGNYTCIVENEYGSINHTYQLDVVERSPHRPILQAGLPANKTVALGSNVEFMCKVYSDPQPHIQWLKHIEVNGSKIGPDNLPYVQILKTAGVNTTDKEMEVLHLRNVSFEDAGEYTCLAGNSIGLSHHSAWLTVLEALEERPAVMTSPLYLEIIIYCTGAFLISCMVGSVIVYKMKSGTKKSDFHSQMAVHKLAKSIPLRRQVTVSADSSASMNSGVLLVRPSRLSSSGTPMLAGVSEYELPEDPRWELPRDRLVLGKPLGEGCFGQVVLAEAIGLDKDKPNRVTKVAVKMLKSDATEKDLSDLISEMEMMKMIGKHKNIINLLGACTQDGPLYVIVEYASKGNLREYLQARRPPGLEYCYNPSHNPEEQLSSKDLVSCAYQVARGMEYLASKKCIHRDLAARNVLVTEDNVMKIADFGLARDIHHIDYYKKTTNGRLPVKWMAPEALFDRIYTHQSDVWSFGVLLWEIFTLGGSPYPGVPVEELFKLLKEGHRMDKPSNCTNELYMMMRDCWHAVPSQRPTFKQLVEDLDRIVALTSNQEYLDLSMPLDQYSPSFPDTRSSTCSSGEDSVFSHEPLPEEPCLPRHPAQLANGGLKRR

SMILES | IC50 [1] [µM] | IC50 [2] [µM] | IC50 (SW-620) [µM] | IC50 (HCT-8) [µM] | IC50 [3] [µM] | IC50 (HT-29) [µM]
CN1CCN(CCCCNc2ncc3cc(-c4c(Cl)cccc4Cl)c(=O)n(C)c3n2)CC1 |  |  | > 25 | > 25 |  | 
CN1CCN(CCCNc2cc3nc(O)c(-c4c(Cl)cccc4Cl)cc3cn2)CC1 | 1.4 |  |  |  | 0.072 | 
CCN(CC)CCCCNc1cc2nc(O)c(-c3c(Cl)cccc3Cl)cc2cn1 | 1.1 |  |  |  | 0.17 | 
CCN(CC)C(=O)c1ccc(Nc2ncc3cc(-c4c(Cl)cccc4Cl)c(=O)n(C)c3n2)cc1 | 0.29 |  |  |  | 0.18 | 
Cn1c(=O)c(-c2c(Cl)cccc2Cl)cc2cnc(Nc3ccncc3)nc21 |  | 0.01 |  | 16 |  | 0.14
CN1CCN(CCCCCNc2ncc3cc(-c4c(Cl)cccc4Cl)c(=O)n(C)c3n2)CC1 |  | 0.06 |  |  |  | 
Cn1c(=O)c(-c2c(Cl)cccc2Cl)cc2cnc(NCCCN3CCOCC3)cc21 | 5.8 |  |  |  |  | 
Cn1c(=O)c(-c2c(Cl)cccc2Cl)cc2cnc(Nc3ccc(N4CCOCC4)cc3)nc21 | 0.64 |  | 0.17 | 1.5 | 0.1 | 0.2
Cn1c(=O)c(-c2c(Cl)cccc2Cl)cc2cnc(Nc3ccncc3)cc21 | 6.9 |  | 8.7 | 7.3 | 3.5 | 3.7
Cn1c(=O)c(-c2c(Cl)cccc2Cl)cc2cnc(Nc3ccc(N4CCOCC4)cc3)cc21 | 2.8 |  |  |  | 8.7 | 
CCN(CC)CCNc1cc2c(cn1)cc(-c1c(Cl)cccc1Cl)c(=O)n2C | > 50 |  |  |  | 33 | 
CN(C)c1cc2c(cn1)cc(-c1c(Cl)cccc1Cl)c(=O)n2C | > 50 |  |  |  | > 50 | 
CN1CCN(CCCCCNc2cc3c(cn2)cc(-c2c(Cl)cccc2Cl)c(=O)n3C)CC1 | 9.9 |  |  |  |  | 
CN1CCN(CCCCNc2cc3c(cn2)cc(-c2c(Cl)cccc2Cl)c(=O)n3C)CC1 | 1.1 |  | 2.6 | 2.4 |  | 1.6
CN1CCN(CCOc2ccc(Nc3cc4c(cn3)cc(-c3c(Cl)cccc3Cl)c(=O)n4C)cc2)CC1 | 0.26 |  |  |  |  | 
CN1CCN(CCCNc2ncc3cc(-c4c(Cl)cccc4Cl)c(=O)n(C)c3n2)CC1 |  | 0.15 | 7.5 | 2.5 |  | 15
Cn1c(=O)c(-c2c(Cl)cccc2Cl)cc2cnc(Nc3ccccc3)nc21 |  | 0.02 |  |  |  | 
COc1ccc(Nc2cc3c(cn2)cc(-c2c(Cl)cccc2Cl)c(=O)n3C)cc1 | 6.8 |  |  |  | 2.2 | 
Cn1c(=O)c(-c2c(Cl)cccc2Cl)cc2cnc(Nc3ccccc3)cc21 | 1.4 |  |  |  | 2.2 | 
CCN(CC)CCCOc1ccc(Nc2cc3nc(O)c(-c4c(Cl)cccc4Cl)cc3cn2)cc1 | 0.79 |  |  |  | 0.44 | 
Cn1c(=O)c(-c2c(Cl)cccc2Cl)cc2ccc(Nc3ccccc3)nc21 | > 50 |  |  |  | > 50 | 
CCN(CC)CCCNc1cc2c(cn1)cc(-c1c(Cl)cccc1Cl)c(=O)n2C | 4.6 |  |  |  | 0.15 | 
CCN(CC)CCOc1ccc(Nc2ncc3cc(-c4c(Cl)cccc4Cl)c(=O)n(C)c3n2)cc1 [PD-0166285] |  |  | 0.27 | 0.42 |  | 0.28

Now from value to molecule:

IC50 [1] [µM] | IC50 [2] [µM] | IC50 (SW-620) [µM] | IC50 (HCT-8) [µM] | IC50 [3] [µM] | IC50 (HT-29) [µM] | SMILES
0.9 |  |  |  |  |  | CN1CCN(CCCOc2ccc(Nc3cc4c(cn3)cc(-c3c(Cl)cccc3Cl)c(=O)n4C)cc2)CC1
 | 0.02 |  |  |  |  | COc1ccc(Nc2ncc3cc(-c4c(Cl)cccc4Cl)c(=O)n(C)c3n2)cc1
 |  | 4.3 | 2.1 |  | 0.83 | CN1CCN(c2ccc(Nc3cc4c(cn3)cc(-c3c(Cl)cccc3Cl)c(=O)n4C)cc2)CC1
> 50 |  |  |  | > 50 |  | CN1CCN(CCCNc2ccc3cc(-c4c(Cl)cccc4Cl)c(=O)n(C)c3n2)CC1
> 50 |  |  |  | > 50 |  | CCN(CC)CCOc1ccc(Nc2ccc3cc(-c4c(Cl)cccc4Cl)c(=O)n(C)c3n2)cc1
3.2 |  |  |  |  |  | Cn1c(=O)c(-c2c(Cl)cccc2Cl)cc2cnc(NCCCn3ccnc3)cc21
8 |  |  | 1.7 | 0.21 | 2.8 | CNc1cc2c(cn1)cc(-c1c(Cl)cccc1Cl)c(=O)n2C
> 50 |  |  |  | > 50 |  | CCN(CC)CCNc1ncc2cc(-c3c(Cl)cccc3Cl)c(=O)n(C)c2n1
> 50 |  |  |  | > 50 |  | CCN(CC)CCCNc1ccc2cc(-c3c(Cl)cccc3Cl)c(=O)n(C)c2n1
0.1 |  | 6.7 | 2.8 |  | 0.75 | CCN(CC)CCOc1ccc(Nc2cc3c(cn2)cc(-c2c(Cl)cccc2Cl)c(=O)n3C)cc1
> 50 |  |  |  | > 50 |  | Cn1c(=O)c(-c2c(Cl)cccc2Cl)cc2ccc(N)nc21
0.74 |  |  |  | 0.08 |  | CCN(CC)CCCCCNc1cc2c(cn1)cc(-c1c(Cl)cccc1Cl)c(=O)n2C
0.36 |  |  |  | 0.25 |  | CCN(CC)CCCOc1ccc(Nc2cc3c(cn2)cc(-c2c(Cl)cccc2Cl)c(=O)n3C)cc1
 | 0.75 | 5 | 7.8 |  | 4.1 | CNc1ncc2cc(-c3c(Cl)cccc3Cl)c(=O)n(C)c2n1
2.4 |  |  |  | 0.08 |  | CCN(CC)CCCCNc1cc2c(cn1)cc(-c1c(Cl)cccc1Cl)c(=O)n2C
3.6 |  |  | 2.2 | 0.38 | 1.9 | Cn1c(=O)c(-c2c(Cl)cccc2Cl)cc2cnc(N)cc21
2.8 |  | 7.6 | 2.8 | 0.17 | 2.2 | CN1CCN(CCCNc2cc3c(cn2)cc(-c2c(Cl)cccc2Cl)c(=O)n3C)CC1
16 |  |  |  | 1.9 |  | CCN(CC)C(=O)c1ccc(Nc2cc3c(cn2)cc(-c2c(Cl)cccc2Cl)c(=O)n3C)cc1
> 50 |  |  |  | > 50 |  | COc1ccc(Nc2ccc3cc(-c4c(Cl)cccc4Cl)c(=O)n(C)c3n2)cc1
 |  | 2.6 |  |  |  | Cn1c(=O)c(-c2c(Cl)cccc2Cl)cc2cnc(N)nc21
 |  | 0.12 | 0.24 |  | 0.24 | CN1CCN(c2ccc(Nc3ncc4cc(-c5c(Cl)cccc5Cl)c(=O)n(C)c4n3)cc2)CC1

From ChEMBL document CHEMBL1133618, “Synthesis and structure-activity relationships of 7-substituted 3-(2, 6-dichlorophenyl)-1,6-naphthyridin-2(1H)-ones as selective inhibitors of pp60(c-src)” (J Med Chem, 2000)
